Measured values taken from US20110288116A1, “IAP INHIBITORS” (TETRALOGIC PHARMACEUITCAL CORPORATION, priority 2008, published 2011).

Legend:
cIAP-1 BIR-3 = biological target: T1, cIAP-1 BIR-3 (Homo sapiens, UniProt Q13490); assay: Fluorescence polarization binding to cIAP-1 BIR-3 (competition with AbuRPF-K(5-Fam)-NH2); details: cells marked (cIAP-1): cIAP-1 BIR-3; reported as range class
T1 construct: "cIAP-1 BIR-3"
Description: (§1) The binding affinities of the compounds are reported as a Kd value. Briefly, various concentrations of test peptides were mixed with 5 nM of the fluorescently labeled peptide (i.e., a mutated N-terminal Smac peptide—AbuRPF-K(5-Fam)-NH2) and 40 nM of the BIR3 for 15 min at RT in […] of 0.1M Potassium Phosphate buffer, pH 7.5 containing […] bovine g-globulin. Following incubation, the polarization values (mP) were measured on a Victor2V (available from PerkinElmer Life Sciences) using a 485 nm excitation filter and a 520 nm emission filter. The reported Kd values are supplied as ranges (A=<0.1 μM, B=0.1 μM to C=>1 μM to 10 μM, D=>10 μM) and, unless otherwise indicated, are the Kd for XIAP BIR-3.

XIAP BIR-3 = biological target: T2, XIAP BIR-3 (Homo sapiens, UniProt P98170); assay: Fluorescence polarization binding to XIAP BIR-3 (competition with AbuRPF-K(5-Fam)-NH2); details: XIAP BIR-3 (default where cell does not indicate otherwise); reported as range class
T2 construct: 40 nM of the BIR3 for 15 min at RT
Description: as §1

T1 sequence (Q13490 266-343 limits assumed): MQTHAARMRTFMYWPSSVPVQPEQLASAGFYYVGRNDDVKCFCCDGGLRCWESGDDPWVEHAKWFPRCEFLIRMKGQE
T2 sequence (P98170 241-356 limits assumed): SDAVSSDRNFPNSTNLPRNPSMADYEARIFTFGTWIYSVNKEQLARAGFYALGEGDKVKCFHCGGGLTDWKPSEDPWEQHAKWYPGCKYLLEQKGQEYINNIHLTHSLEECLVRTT

Row | Kd (cIAP-1 BIR-3) | Kd (XIAP BIR-3) | SMILES
1 | < 100 nM |  | CCN[C@@H](C)C(=O)N[C@H](C(=O)N1CC[C@H](O)[C@H]1Cc1c[nH]c2ncccc12)C(C)(C)C [AA]
2 | > 100 nM |  | CCc1ccc2c(c1)[C@@H](C[C@@H]1C[C@H](O)CN1C(=O)[C@@H](NC(=O)[C@H](C)NC)C1CCCCC1)CN2C(C)=O [BBBB]
3 | < 100 nM |  | CN[C@@H](C)C(=O)N[C@H](C(=O)N1CC[C@H](O)[C@H]1Cc1c[nH]c2ncccc12)[C@@H](C)OC [BB]
4 | < 100 nM |  | CC[C@H](NC)C(=O)N[C@H](C(=O)N1CC[C@H](O)[C@H]1Cc1c(Cl)[nH]c2cc(F)ccc12)[C@@H](C)OC [BB′]
5 | > 100 nM |  | CCN[C@@H](C)C(=O)N[C@H](C(=O)N1C[C@@H](O)C[C@H]1C[C@H]1CN(C(C)=O)c2ccc(CC)cc21)C1CCCCC1 [CCCC]
6 | < 100 nM |  | CCN[C@@H](C)C(=O)N[C@H](C(=O)N1CC[C@@H](O)[C@H]1Cc1c(-c2ccc(F)cc2)[nH]c2ccccc12)[C@@H](C)O [CCC]
7 | < 100 nM |  | CCN[C@@H](C)C(=O)N[C@H](C(=O)N1CC[C@H](O)[C@H]1Cc1c[nH]c2ncccc12)[C@@H](C)OC [CC]
8 | < 100 nM |  | CN[C@@H](C)C(=O)N[C@H](C(=O)N1CC[C@H](O)[C@H]1Cc1c(Cl)[nH]c2cc(F)ccc12)[C@@H](C)OC [CC′, N-{1-[2-(2-Chloro-6-fluoro-1H-indol-3-ylmethyl)-3-hydroxy-pyrrolidine-1-carbonyl]-2-methoxy-propyl}-2-methylamino-propionamide]
9 | < 100 nM |  | CCc1ccc2c(c1)[C@@H](C[C@@H]1C[C@H](O)CN1C(=O)[C@@H](NC(=O)[C@H](C)NC)[C@@H](C)OC)CN2C(C)=O [DDDD]
10 | < 100 nM |  | CC[C@H](NC)C(=O)N[C@H](C(=O)N1CC[C@@H](O)[C@H]1Cc1c(-c2ccc(F)cc2)[nH]c2ccccc12)[C@@H](C)O [DDD]
11 | < 100 nM |  | CN[C@@H](C)C(=O)N[C@H](C(=O)N1CC[C@H](O)[C@H]1Cc1c[nH]c2ncccc12)C(C)C [DD]
12 | < 100 nM |  | CCN[C@@H](C)C(=O)N[C@H](C(=O)N1CC[C@@H](O)[C@H]1Cc1c[nH]c2ccccc12)[C@@H](C)O [DD′]
13 | < 100 nM |  | CN[C@@H](C)C(=O)N[C@H](C(=O)N1CC[C@@H](O)[C@H]1Cc1c(-c2ccc(F)cc2)[nH]c2ccccc12)[C@@H](C)O [EEE]
14 | < 100 nM |  | CCN[C@@H](C)C(=O)N[C@H](C(=O)N1CC[C@H](O)[C@H]1Cc1c[nH]c2ncccc12)C(C)C [EE]
15 | > 100 nM |  | CCN[C@@H](C)C(=O)N[C@@H](COC)C(=O)N1CC[C@@H](O)[C@H]1Cc1c(-c2ccc(F)cc2)[nH]c2ccccc12 [FFF]
16 | < 100 nM |  | CCN[C@@H](C)C(=O)N[C@H](C(=O)N1CC[C@@H](O)[C@H]1Cc1c[nH]c2ccccc12)[C@@H](C)OC [GG′]
17 | > 100 nM |  | CN[C@@H](C)C(=O)N[C@@H](COC)C(=O)N1CC[C@@H](O)[C@H]1Cc1c(-c2ccc(F)cc2)[nH]c2ccccc12 [HHH]
18 | < 100 nM |  | CCN[C@@H](C)C(=O)N[C@H](C(=O)N1CC[C@@H](O)[C@H]1Cc1c(-c2ccc(F)cc2)[nH]c2ccccc12)C1CCCCC1 [III]
19 | < 100 nM |  | CCN[C@@H](C)C(=O)N[C@H](C(=O)N1CC[C@@H](O)[C@H]1Cc1c[nH]c2ccccc12)C1CCCCC1 [JJ′]
20 |  | > 10000 nM | CC[C@H](NC)C(=O)N[C@H](C(=O)N1CC[C@H](C)[C@H]1Cc1c[nH]c2cc(F)ccc12)[C@@H](C)OC [KK]

Row | Kd (cIAP-1 BIR-3) | Kd (XIAP BIR-3) | SMILES
21 | < 100 nM |  | CC[C@H](NC)C(=O)N[C@H](C(=O)N1CC[C@@H](O)[C@H]1Cc1c[nH]c2ccccc12)C1CCCCC1 [KK′]
22 | < 100 nM |  | CCN[C@@H](C)C(=O)N[C@H](C(=O)N1CC[C@@H](O)[C@H]1Cc1c(-c2ccc(F)cc2)[nH]c2ccccc12)[C@@H](C)OC [LLL]
23 |  | > 10000 nM | CN[C@@H](CO)C(=O)N[C@H](C(=O)N1CC[C@H](C)[C@H]1Cc1c[nH]c2cc(F)ccc12)[C@@H](C)OC [LL]
24 |  | < 100 nM | CN[C@@H](C)C(=O)N[C@H](C(=O)N1CC[C@@H](O)[C@H]1Cc1c[nH]c2ccccc12)C1CCCCC1 [LL′, N-{1-Cyclohexyl-2-[3-hydroxy-2-(1H-indol-3-ylmethyl)-pyrrolidin-1-yl]-2-oxo-ethyl}-2-methylamino-propionamide]
25 |  | > 10000 nM | CN[C@@H](C)C(=O)N[C@H](C(=O)N1CC[C@H](OC)[C@H]1Cc1c[nH]c2cc(F)ccc12)[C@@H](C)OC [L′]
26 | < 100 nM |  | CC[C@H](NC)C(=O)N[C@H](C(=O)N1CC[C@@H](O)[C@H]1Cc1c(-c2ccc(F)cc2)[nH]c2ccccc12)[C@@H](C)OC [MMM]
27 |  | 1000 to 10000 nM | CCN[C@@H](C)C(=O)N[C@H](C(=O)N1CC[C@H](C)[C@H]1Cc1c[nH]c2cc(F)ccc12)[C@@H](C)OC [MM]
28 | < 100 nM |  | CN[C@H](C(=O)N[C@H](C(=O)N1CC[C@@H](O)[C@H]1Cc1c[nH]c2ccccc12)C(C)(C)C)C1CC1 [MM′]
29 |  | 1000 to 10000 nM | CN[C@@H](C)C(=O)N[C@H](C(=O)N1CC[C@H](C)[C@H]1Cc1c[nH]c2cc(F)ccc12)[C@@H](C)O [NN]
30 | < 100 nM |  | CC[C@H](NC)C(=O)N[C@H](C(=O)N1CC[C@@H](O)[C@H]1Cc1c[nH]c2ccccc12)C(C)(C)C [NN′]
31 |  | 1000 to 10000 nM | CCNCC(=O)N[C@H](C(=O)N1CCC[C@H]1Cc1c[nH]c2ncccc12)C(C)(C)C [N]
32 |  | > 100 nM | CN[C@@H](C)C(=O)N[C@H](C(=O)N1CC[C@H](OC)[C@H]1Cc1c(Cl)[nH]c2cc(F)ccc12)[C@@H](C)O [N′]
33 | < 100 nM |  | CCN[C@@H](C)C(=O)N[C@H](C(=O)N1CC[C@@H](O)[C@H]1Cc1c[nH]c2ccccc12)C(C)(C)C [OO′]
34 |  | < 100 nM | CN[C@@H](CO)C(=O)N[C@H](C(=O)N1CCC[C@H]1Cc1c[nH]c2ncccc12)C(C)(C)C [O]
35 |  | > 100 nM | CC[C@H](NC)C(=O)N[C@H](C(=O)N1CC[C@H](OC)[C@H]1Cc1c(Cl)[nH]c2cc(F)ccc12)[C@@H](C)O [O′]
36 | < 100 nM |  | CN[C@@H](C)C(=O)N[C@H](C(=O)N1C[C@@H](O)C[C@H]1C(=O)c1c[nH]c2cc(F)ccc12)C(C)(C)C [PPP, N-{1-[2-(6-Fluoro-1H-indole-3-carbonyl)-4-hydroxy-pyrrolidine-1-carbonyl]-2,2-dimethyl-propyl}-2-methylamino-propionamide]
37 |  | > 10000 nM | CN[C@@H](CO)C(=O)N[C@H](C(=O)N1CC[C@H](C)[C@H]1Cc1c[nH]c2cc(F)ccc12)[C@@H](C)O [PP]
38 | < 100 nM |  | CN[C@@H](C)C(=O)N[C@H](C(=O)N1CC[C@@H](O)[C@H]1Cc1c[nH]c2ccccc12)C(C)(C)C [PP′]
39 |  | < 100 nM | CN[C@@H](C)C(=O)N[C@H](C(=O)N1CCC[C@H]1Cc1c[nH]c2c1ccc[n+]2[O-])[C@@H](C)OC [P]
40 |  | < 100 nM | CN[C@@H](C)C(=O)N[C@H](C(=O)N1CC[C@H](OC)[C@H]1Cc1c(Cl)[nH]c2cc(F)ccc12)[C@@H](C)OC [P′]

Row | Kd (cIAP-1 BIR-3) | Kd (XIAP BIR-3) | SMILES
41 | < 100 nM |  | CN[C@@H](C)C(=O)N[C@H](C(=O)N1C[C@@H](O)C[C@H]1C(=O)c1c[nH]c2cc(F)ccc12)C(C)C [QQQ]
42 |  | > 10000 nM | CCN[C@@H](C)C(=O)N[C@H](C(=O)N1CC[C@H](C)[C@H]1Cc1c[nH]c2cc(F)ccc12)[C@@H](C)O [QQ]
43 | > 100 nM |  | CN[C@H](C(=O)N[C@H](C(=O)N1CC[C@@H](O)[C@H]1Cc1c[nH]c2ccccc12)C1CC1)C1CC1 [QQ′]
44 |  | > 100 nM | CCN[C@@H](C)C(=O)N[C@H](C(=O)N1CCC[C@H]1Cc1c[nH]c2c1ccc[n+]2[O-])[C@@H](C)OC [Q]
45 |  | > 100 nM | CC[C@H](NC)C(=O)N[C@H](C(=O)N1CC[C@H](OC)[C@H]1Cc1c(Cl)[nH]c2cc(F)ccc12)[C@@H](C)OC [Q′]
46 | < 100 nM |  | CC[C@H](NC)C(=O)N[C@H](C(=O)N1CC[C@@H](O)[C@H]1Cc1c[nH]c2ccccc12)C1CC1 [RR′]
47 |  | > 100 nM | CCN[C@@H](C)C(=O)N[C@H](C(=O)N1CC[C@H](OC)[C@H]1Cc1c(Cl)[nH]c2cc(F)ccc12)[C@@H](C)OC [R′]
48 | > 100 nM |  | CCN[C@@H](C)C(=O)N[C@H](C(=O)N1CC[C@@H](O)[C@H]1Cc1c[nH]c2ccccc12)C1CC1 [SS′]
49 |  | < 100 nM | CN[C@@H](C)C(=O)N[C@H](C(=O)N1CCC[C@H]1Cc1c[nH]c2c1ccc[n+]2[O-])C(C)(C)C [S]
50 |  | 1000 to 10000 nM | CN[C@@H](CO)C(=O)N[C@H](C(=O)N1CC[C@H](OC)[C@H]1Cc1c(Cl)[nH]c2cc(F)ccc12)[C@@H](C)OC [S′]
51 | < 100 nM |  | CN[C@@H](C)C(=O)N[C@H](C(=O)N1C[C@@H](O)C[C@H]1C[C@@H]1CN(C(C)=O)c2ccccc21)C1CCCCC1 [TTT]
52 |  | < 100 nM | CC[C@H](NC)C(=O)N[C@H](C(=O)N1CC[C@H](O)[C@H]1Cc1c[nH]c2cc(F)ccc12)[C@@H](C)OC [TT]
53 | > 100 nM |  | CN[C@H](C(=O)N[C@H](C(=O)N1CC[C@@H](O)[C@H]1Cc1c[nH]c2ccccc12)C(C)C)C1CC1 [TT′]
54 |  | < 100 nM | CC[C@H](NC)C(=O)N[C@H](C(=O)N1CCC[C@H]1Cc1cn(C)c2ncccc12)[C@@H](C)OC [T]
55 |  | < 100 nM | CN[C@@H](C)C(=O)N[C@H](C(=O)N1CC[C@H](O)[C@H]1Cc1c[nH]c2cc(F)ccc12)C(C)(C)C [UU]
56 |  | < 100 nM | CN[C@@H](C)C(=O)N[C@H](C(=O)N1CCC[C@H]1Cc1cn(C)c2ncccc12)[C@@H](C)OC [U]
57 |  | < 100 nM | CC[C@H](NC)C(=O)N[C@H](C(=O)N1CC[C@H](O)[C@H]1Cc1c[nH]c2cc(F)ccc12)C(C)(C)C [VV]
58 |  | < 100 nM | CN[C@@H](C)C(=O)N[C@H](C(=O)N1CC[C@H](O)[C@H]1Cc1cn(C)c2cc(F)ccc12)[C@@H](C)OC [YY]
59 |  | < 100 nM | CN[C@@H](C)C(=O)N[C@H](C(=O)N1CCC[C@H]1Cc1c(-c2ccccc2)n(C)c2ncccc12)[C@@H](C)OC [Y]
60 |  | < 100 nM | CCN[C@@H](C)C(=O)N[C@H](C(=O)N1CC[C@H](O)[C@H]1Cc1cn(C)c2cc(F)ccc12)[C@@H](C)OC [ZZ]
